We go through nine compounds from patent US6906098B2, “Mixed steroidal 1,2,4,5-tetraoxane compounds and methods of making and using thereof” (priority 2002, dated 2005).

For data set [1], the system named is Mycobacterium tuberculosis H37Rv (ATCC 27294). Nature of the data set: Primary screen, Microplate Alamar Blue Assay (MABA), percent inhibition. Particulars: Mycobacterium tuberculosis, primary screening at 6.25 μg/ml. Format: cell-based. The essentials:
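Single-concentration screen at 6.25 μg/ml (or molar equivalent of the heaviest congener in a series) against H37Rv grown in BACTEC 12B medium. Growth read by Microplate Alamar Blue Assay, reported as percent inhibition.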
(In general: Resazurin is reduced to fluorescent resorufin, in cell work by metabolically active cells.)

In the next data set the test system is M. tuberculosis H37Rv. As to the kind of experiment: Minimum inhibitory concentration (MIC) in the MABA. Format: cell-based, Mycobacterium tuberculosis. To be noted: Mycobacterium tuberculosis, H37RV. The method, boiled down: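 Run under the NIAID TAACF screening program against M. tuberculosis by fluorescence read-out. MIC taken as the lowest concentration giving 90% reduction in fluorescence relative to controls.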

The test system of data set [2] is Plasmodium falciparum chloroquine-resistant strain W2. As to the kind of experiment: microbe, parasite or virus in culture. Format: cell-based. To be noted: for Strain W2 IC50: growth inhibition, chloroquine-resistant strain W2, 66 h incubation; for IC50: Plasmodium falciparum, W2, 66 h, read-out: Strain W2 IC50, growth inhibition, chloroquine-resistant strain W2, 66 h incubation.

The subject of data set [3] is lung NCI-H460, breast MCF7, CNS SF-268. As to the kind of experiment: 3-cell line one dose primary anticancer assay (NCI). In kind it is cell-based, human. Particulars: growth percentage after 48 hours, at 100 μM. On the procedure:
In preliminary tests, four compounds (1B14a, 1C44, 1C45, and 1C46) were chosen by NIH-NCI for in vitro screening. See Drug discovery and development program, National Cancer Institute, Bethesda, (NCI), http://dtp.nci.nih.gov. All tetraoxanes were evaluated in the 3-cell line (lung—NCI-H460, breast—MCF7, CNS-SF-268) one dose primary anticancer assay: growth percentage after 48 hours, at 100 μM concentration of tested compound. Two compounds were eliminated at this step (1B14a and 1C46), while the acid 1C44 and primary amide 1C45 were evaluated against the full panel of 60 human tumor cell lines starting with 10^−4 M concentration of investigated compounds.

Data set [4] relates to D6 and W2 P. falciparum clones. In kind it is cell-based, Plasmodium falciparum. Particulars: for Resistance Index: IC50 (W2)/IC50 (D6) ratio; for times more active than bis(1,1-dioxy-2-methylcyclohexane): antimalarial activity versus literature tetraoxane.
The subject of data set [5] is Plasmodium falciparum chloroquine-susceptible strain D6. As to the kind of experiment: In vitro antimalarial drug susceptibility assay (radiolabeled hypoxanthine incorporation), strain D6. To be noted: for Strain D6 IC50: growth inhibition, chloroquine-susceptible strain D6, 66 h incubation; for IC50: Plasmodium falciparum, D6, 66 h, read-out: Strain D6 IC50, growth inhibition, chloroquine-susceptible strain D6, 66 h incubation. Format: cell-based.

Data set [6] deals with M. avium strains 100, 101, 108, 109, 116. Nature of the data set: M. avium MIC, Microtiter. Format: cell-based, Mycobacterium avium.
For data set [7], the system named is VERO cells. Particulars: for SI (selectivity index): ratio of IC50 in VERO cells to MIC (M. tuberculosis H37Rv).
The subject of data set [8] is VERO cells. Nature of the data set: cells. To be noted: Chlorocebus sabaeus, Table 5.
Another data set in a line: in vitro. Particulars: African green monkey, Cytotoxcity (IC50), Table 3; VERO cell line, 72 hours exposure.
Where [9] appears, read: Table 3, H37Rv, read-out: Inhibition (%).
The mark [10] stands for this setting: Table 5, Alamar assay, read-out: % Inhib.
The mark [11] stands for this setting: Table 5, Alamar assay, M. tuberculosis H37Rv, read-out: MIC.

Converted amounts (≈) assume the structure as drawn. “And” between values parts separate entries of the source, which are not always exact repeats. Identical values can stand only once. Like-named read-outs stand apart in the source and are kept apart here.

Take `CCCNC(=O)CC[C@@H](C)[C@H]1CC[C@H]2[C@@H]3[C@H](OC(C)=O)C[C@@H]4CC(OO)(OO)CC[C@]4(C)[C@H]3C[C@H](OC(C)=O)[C@]12C`: the melting point (usually the temperature, or range, at which the solid turns liquid) lay within 120 to 129 °C.

Turning to `COC(=O)CCC(C)[C@H]1CCC2C3C(C[C@H](OC(C)=O)[C@@]21C)[C@@]1(C)CCC2(C[C@H]1C[C@H]3OC(C)=O)OOC1(CCC(c3ccccc3)CC1)OO2` (single isomer, unassigned) [Compound 1B14a, Methyl 7α,12α-diacetoxy-5β-cholan-24-oate-3-spiro-6′-(1′,2′,4′,5′-tetraoxacyclohexane)-3′-spiro-1″-((4″R or S)- and (4″S or R)-phenyl)cyclohexane], the inhibition at 6.25 µg/mL in [1] (setting [9]) and in data set [1] (setting [10]) was 37% throughout. The minimum inhibitory concentration (MIC) (usually the lowest concentration found to suppress growth) is greater than 6.25 µg/mL with M. tuberculosis H37Rv (Table 3, H37Rv, read-out: MIC) and greater than 6.25 µg/mL in the data set with M. tuberculosis H37Rv (setting [11]). The “Strain W2 IC50” value in [2] turned out to be 0.01172 µg/mL. In addition, in data set [3], the “outcome of one dose primary anticancer assay” value was “eliminated”. The “Resistance Index” value in [4] worked out at 0.93. Further, the “Strain D6 IC50” value in data set [5] was 0.01256 µg/mL.

Consider `CNC(=O)CCC(C)[C@H]1CCC2C3C(C[C@H](OC(C)=O)[C@@]21C)[C@@]1(C)CCC2(C[C@H]1C[C@H]3OC(C)=O)OOC1(CCC(c3ccccc3)CC1)OO2` (single isomer, unassigned) [Compound 1C46, N-Methyl-7α,12α-Diacetoxy-5β-cholan-24-amide-3-spiro-6′-(1′,2′,4′,5′-tetraoxacyclohexane)-3′-spiro-1″-((4″R or S)-phenyl)cyclohexane], for which the inhibition at 6.25 µg/mL in data set [1] (Table 3, H37Rv) came to 71%; in data set [1] (setting [10]), 71%. For the same compound, the minimum inhibitory concentration (MIC) with M. tuberculosis H37Rv (Table 3) is 6.25 µg/mL (≈ 8.8 µM); with M. tuberculosis H37Rv (setting [11]), greater than 6.25 µg/mL. In addition, the “Strain W2 IC50” value in data set [2] was 0.00696 µg/mL. Besides, the “outcome of one dose primary anticancer assay” value in data set [3] is given as “eliminated”. Also, the “Resistance Index” value in data set [4] is listed as 0.79. For the same compound, the “Strain D6 IC50” value in data set [5] was determined as 0.00883 µg/mL.

`COC(=O)CCC(C)[C@H]1CCC2C3C(C[C@H](OC(C)=O)[C@@]21C)[C@@]1(C)CCC2(C[C@H]1C[C@H]3OC(C)=O)OOC1(CCCCC1C)OO2` (stereo partly drawn) [8d/1B06, Methyl 7α,12α-Diacetoxy-5β-cholan-24-oate-3-spiro-6′-(1′,2′,4′,5′-tetraoxacyclohexane)-3′-spiro-1″-(2″-methyl)cyclohexane]: the melting point is 204 to 207 °C. The inhibition at 6.25 µg/mL in data set [1] (setting [10]) was determined as 29%. Further, the MIC with M. tuberculosis H37Rv (setting [11]) was greater than 6.25 µg/mL. Further, in [2], the IC50 (commonly the concentration needed to halve the response being measured) is 0.0102 µg/mL (≈ 0.0156 µM). For the same compound, in [4], the “Resistance Index” value stood at 0.58 and the “times more active than bis(1,1-dioxy-2-methylcyclohexane)” value was “about 2 times”. In addition, the concentration for half-maximal inhibition (IC50) in [5] was 0.0175 µg/mL (≈ 0.027 µM).

Compound `COC(=O)CCC(C)[C@H]1CCC2C3C(C[C@H](OC(C)=O)[C@@]21C)[C@@]1(C)CCC2(C[C@H]1C[C@H]3OC(C)=O)OOC1(OO2)C(C)CCCC1C` (stereo partly drawn) [8e/1B07, Methyl 7α,12α-diacetoxy-5β-cholan-24-oate-3-spiro-6′-(1′,2′,4′,5′-tetraoxacyclohexane)-3′-spiro-1″-(2″,6″-dimethyl)cyclohexane] returned a melting point of 213 to 215 °C. In data set [1] (setting [10]), the inhibition at 6.25 µg/mL stood at 0%. Further, the MIC in the data set with M. tuberculosis H37Rv (setting [11]) is greater than 6.25 µg/mL. Further, in data set [2], the IC50 stood at 0.237 µg/mL (≈ 0.357 µM). Besides, the “antimalarial activity in words” value in [4] (D6 and W2 clones, Table 2) was “inactive”. The “Resistance Index” value in data set [4] turned out to be 11.45. Also, in [5], the IC50 came out at 0.0207 µg/mL (≈ 0.0312 µM).

As to `CC(=O)O[C@H]1CC2C(C3CC[C@H](C(C)CCC(N)=O)[C@]31C)[C@H](OC(C)=O)C[C@@H]1CC3(CC[C@]21C)OOC1(CCCCC1C)OO3` (stereo partly drawn) [13/1C22, 7α,12α-Diacetoxy-5β-cholan-24-amide-3-spiro-6′-(1′,2′,4′,5′-tetraoxacyclohexane)-3′-spiro-1″-(2″-methyl)cyclohexane], in data set [1] (setting [10]), the inhibition at 6.25 µg/mL is 100%. Also, the MIC with M. tuberculosis H37Rv (setting [11]) is 0.2 µg/mL (≈ 0.316 µM); in [6] (M. avium strain 101, MIC dilution 0.25-32), greater than 32 µg/mL; in [6] (M. avium strain 108, MIC dilution 0.25-32), greater than 32 µg/mL; in [6] (M. avium strain 109, MIC dilution 0.25-32), greater than 32 µg/mL; in [6] (M. avium strain 116, MIC dilution 0.25-32), greater than 32 µg/mL; in [6] (Mycobacterium avium, M. avium strain 100, MIC dilution 0.25-32, read-out: MIC) it was greater than 32 µg/mL. For the same compound, the half-maximal inhibitory concentration (IC50) in [2] stood at 0.00705 µg/mL (≈ 0.0111 µM); in [5], 0.011 µg/mL (≈ 0.0173 µM). The “Resistance Index” value in data set [4] worked out at 0.64. The “times more active than bis(1,1-dioxy-2-methylcyclohexane)” value in data set [4] was “ca. 3.5 times”.

Turning to `CC(=O)O[C@H]1CC2C(C3CC[C@H](C(C)CCC(N)=O)[C@]31C)[C@H](OC(C)=O)C[C@@H]1CC3(CC[C@]21C)OOC1(CCC(C)CC1)OO3` (stereo partly drawn) [17/1C26, 7α,12α-Diacetoxy-5β-cholan-24-amide-3-spiro-6′-(1′,2′,4′,5′-tetraoxacyclohexane)-3′-spiro-1″-((4″R)-methyl)cyclohexane], the “SI (IC50 (Vero)/IC50 (D6 or W2))” value with VERO cells [7] (cytotoxicity in Vero cells versus antimalarial activity) is recorded as 9 500. Also, the “SI (selectivity index)” value in the data set on VERO cells [7] worked out at 1.1. For the same compound, the inhibition at 6.25 µg/mL in data set [1] (setting [9]) and in data set [1] (setting [10]) was 99% each time. Besides, the minimum inhibitory concentration (MIC) in the data set on M. tuberculosis H37Rv (Table 3, H37Rv, read-out: MIC) was 3.13 µg/mL and 4.94 µM; in the data set on M. tuberculosis H37Rv (setting [11]) it was 3.13 µg/mL (≈ 4.94 µM). Besides, the “Strain W2 IC50” value in [2] (listed as 17) came to 0.00037 µg/mL. For the same compound, the “Resistance Index” value in data set [4] and in data set [4] (listed as 17) was 0.50 in each case. For the same compound, the “times more active than parent methyl ester 8g” value in data set [4] (antimalarial activity) is reported as “ca. 9 times”. In data set [4] (antimalarial activity in vitro), the “times as active as arteether” value turned out to be 2.4 times. In addition, the “times more active than artelinic acid” value in [4] (antimalarial activity in vitro) is listed as “ca. 6 times”. The IC50 is 3.49 µg/mL (≈ 5.51 µM) in the data set with VERO cells [8]; 3.49 µg/mL and 5.51 µM in “in vitro”. Moreover, the “Strain D6 IC50” value in data set [5] (listed as 17) was 0.00074 µg/mL.

Consider `CCNC(=O)CCC(C)[C@H]1CCC2C3C(C[C@H](OC(C)=O)[C@@]21C)[C@@]1(C)CCC2(C[C@H]1C[C@H]3OC(C)=O)OOC1(CCC(C)CC1)OO2` (stereo partly drawn) [19/1C28, N-Ethyl-7α,12α-diacetoxy-5β-cholan-24-amide-3-spiro-6′-(1′,2′,4′,5′-tetraoxacyclohexane)-3″-spiro-1″-((4″R)-methyl)cyclohexane], for which the “SI (selectivity index)” value in the data set with VERO cells [7] was 1.7. Also, in [1] (setting [9]), the inhibition at 6.25 µg/mL turned out to be 98%. The minimal inhibitory concentration (MIC) is 3.13 µg/mL and 4.73 µM with M. tuberculosis H37Rv (Table 3, H37Rv, read-out: MIC); 3.13 µg/mL (≈ 4.73 µM) with M. tuberculosis H37Rv (setting [11]). Besides, the “Strain W2 IC50” value in data set [2] is 0.0026 µg/mL. The “Resistance Index” value in data set [4] was 0.68. The IC50 in the data set with VERO cells [8] was 5.37 µg/mL (≈ 8.11 µM); in “in vitro”, 5.37 µg/mL and 8.11 µM. In addition, the “Strain D6 IC50” value in data set [5] was 0.00384 µg/mL.

As for `CCCNC(=O)CCC(C)[C@H]1CCC2C3C(C[C@H](OC(C)=O)[C@@]21C)[C@@]1(C)CCC2(C[C@H]1C[C@H]3OC(C)=O)OOC1(CCC(C)CC1)OO2` (stereo partly drawn) [20/1C29, N-(n-Propyl)-7α,12α-diacetoxy-5β-cholan-24-amide-3-spiro-6′-(1′,2′,4′,5′-tetraoxacyclohexane)-3′-spiro-1″-((4″R)-methyl)cyclohexane], in the data set on VERO cells [7], the “SI (selectivity index)” value was determined as 1.3. Besides, the inhibition at 6.25 µg/mL in data set [1] (setting [9]) stood at 94%. For the same compound, the minimal inhibitory concentration (MIC) in the data set with M. tuberculosis H37Rv (Table 3, H37Rv, read-out: MIC) is 6.25 µg/mL and 9.25 µM; in the data set with M. tuberculosis H37Rv (setting [11]), 6.25 µg/mL (≈ 9.25 µM). Besides, in data set [2], the “Strain W2 IC50” value was found to be 0.00258 µg/mL. In addition, in [4], the “Resistance Index” value was found to be 1.18. Further, the IC50 is 8.34 µg/mL (≈ 12.3 µM) with VERO cells [8]; 8.34 µg/mL and 12.3 µM in “in vitro”. The “Strain D6 IC50” value in data set [5] was 0.00218 µg/mL.
